The assay deals with T1, RIPK1 (Homo sapiens, UniProt Q13546).
T1 construct: recombinant GST-RIPK1 kinase domain (residues 1-327) enzyme produced from baculovirus-transfected Sf21 cells; host or cells: baculovirus-transfected Sf21 insect cells
T1 sequence (Q13546 1-327): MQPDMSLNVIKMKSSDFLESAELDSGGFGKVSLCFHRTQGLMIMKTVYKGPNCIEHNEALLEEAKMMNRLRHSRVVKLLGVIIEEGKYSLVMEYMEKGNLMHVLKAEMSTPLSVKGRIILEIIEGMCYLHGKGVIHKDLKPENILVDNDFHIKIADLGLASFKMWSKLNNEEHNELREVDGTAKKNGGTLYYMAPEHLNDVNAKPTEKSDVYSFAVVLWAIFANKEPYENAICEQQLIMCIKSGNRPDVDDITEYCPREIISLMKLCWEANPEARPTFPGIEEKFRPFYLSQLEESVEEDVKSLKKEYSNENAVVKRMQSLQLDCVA
Put plainly: RIPK1-ADP-Glo enzymatic assay. Type of assay: biochemical. As to conditions: ADP-Glo luminescent ADP detection; 25 nM GST-RIPK1 kinase domain (residues 1-327), 300 μM ATP, dephosphorylated-MBP substrate; 30 min pre-incubation, 150 min reaction. As to the method:
RIPK1-ADP-Glo Enzymatic Assay
The enzymatic activity of RIPK1 is measured using an assay derived from ADP-Glo kit (Promega™), which provides a luminescent-based ADP detection system. Specifically, the ADP generated by RIPK1 kinase is proportionally detected as luminescent signals in a homogenous fashion. In this context, the assessment of the inhibitory effect of small molecules (EC50) is measured by the effectiveness of the compounds to inhibit the ATP to ADP conversion by RIPK1.
In this assay, the potency (EC50) of each compound was determined from a ten-point (1:3 serial dilution; top compound concentration of 100000 nM) titration curve using the following outlined procedure. To each well of a white ProxiPlus 384 well-plate, 30 nL of compound (1% DMSO in final assay volume of 3 μL) was dispensed, followed by the addition of 2 μL of 1×assay buffer (25 mM Hepes 7.3, 20 mM MgCl2, 50 mM NaCl, 1 mM DTT, 0.005% Tween20, and 0.02% BSA) containing 37.5 nM of GST-RIPK1 (recombinant GST-RIPK1 kinase domain (residues 1-327) enzyme produced from baculovirus-transfected Sf21 cells: MW=62 kDa). Plates were placed in an ambient temperature humidified chamber for a 30 minutes pre-incubation with compound. Subsequently, each reaction was initiated by the addition of 1 μL 1×assay buffer containing 900 μM ATP and […] dephosphorylated-MBP substrate. The final reaction in each well of 3 μL consists of 25 nM of GST-RIPK1, 300 μM ATP, and 3 μM dephosphorylated-MBP. Kinase reactions were allowed to proceed for 150 minutes prior to adding ADP-Glo reagents per Promega's outlined kit protocol. Dose-response curves were generated by plotting percent effect (% product conversion; Y-axis) vs. Log10 compound concentrations (X-axis). EC50 values were calculated using a non-linear regression, four-parameters sigmoidal dose-response model.
(In ADP-Glo the light output rises with the ADP produced.)

Each structure is given as a SMILES string. Where a name gives a salt, the structure may show the parent alone.

What is called EC50 is the concentration needed to bring the measured effect to its halfway point. Low values mean an effect from little substance, high ones a need for much substance. For the compound `O=C(N1CC(OCc2ccccc2)C1)N1N=CC[C@H]1c1cc(F)cc(F)c1` [Example 1.25, (S)-(3-(benzyloxy)azetidin-1-yl)(5-(3,5-difluorophenyl)-4,5-dihydro-1H-pyrazol-1-yl)methanone], the EC50 turned out to be 11.8 nM.
For `O=C(N1CC2(CCCO2)C1)N1N=CC[C@H]1c1cc(F)cc(F)c1` [Example 1.26, (S)-(5-(3,5-difluorophenyl)-4,5-dihydro-1H-pyrazol-1-yl)(5-oxa-2-azaspiro[3.4]octan-2-yl)methanone] the value was 47.4 nM; for `O=C(N1CC(O)(C(F)(F)F)C1)N1N=CC[C@H]1c1cc(F)cc(F)c1` [Example 1.27, (S)-(5-(3,5-difluorophenyl)-4,5-dihydro-1H-pyrazol-1-yl)(3-hydroxy-3-(trifluoromethyl)azetidin-1-yl)methanone], 988 nM; for `CC1(O)CN(C(=O)N2N=CC[C@H]2c2cc(F)cc(F)c2)C1` [Example 1.28, (S)-(5-(3,5-difluorophenyl)-4,5-dihydro-1H-pyrazol-1-yl)(3-hydroxy-3-methylazetidin-1-yl)methanone], 3590 nM.
For `CC1(F)CN(C(=O)N2N=CC[C@H]2c2cc(F)cc(F)c2)C1` [Example 1.29, (S)-(5-(3,5-difluorophenyl)-4,5-dihydro-1H-pyrazol-1-yl)(3-fluoro-3-methylazetidin-1-yl)methanone] the value was 61.7 nM; for `CC(C)C1(O)CN(C(=O)N2N=CC[C@H]2c2cc(F)cc(F)c2)C1` [Example 1.30, (S)-(5-(3,5-difluorophenyl)-4,5-dihydro-1H-pyrazol-1-yl)(3-hydroxy-3-isopropylazetidin-1-yl)methanone], 2290 nM; for `O=C(N1CC(F)C1)N1N=CC[C@H]1c1cc(F)cc(F)c1` [Example 1.31, (S)-(5-(3,5-difluorophenyl)-4,5-dihydro-1H-pyrazol-1-yl)(3-fluoroazetidin-1-yl)methanone], 38.4 nM.
For `O=C(N1CC(F)(F)C1)N1N=CC[C@H]1c1cc(F)cc(F)c1` [Example 1.32, (S)-(3,3-difluoroazetidin-1-yl)(5-(3,5-difluorophenyl)-4,5-dihydro-1H-pyrazol-1-yl)methanone] the value was 17.2 nM; for `O=C(N1CC(Cl)C1)N1N=CC[C@H]1c1cc(F)cc(F)c1` [Example 1.33, (S)-(3-chloroazetidin-1-yl)(5-(3,5-difluorophenyl)-4,5-dihydro-1H-pyrazol-1-yl)methanone], 18.3 nM.
As to `O=C(N1CC(O)(C2CC2)C1)N1N=CC[C@H]1c1cc(F)cc(F)c1` [Example 1.34, (S)-(3-cyclopropyl-3-hydroxyazetidin-1-yl)(5-(3,5-difluorophenyl)-4,5-dihydro-1H-pyrazol-1-yl)methanone], it took 2460 nM to reach a half-maximal effect (EC50).
For `O=C(N1CC2(C1)CN(c1cnccn1)C2)N1N=CC[C@H]1c1cc(F)cc(F)c1` [Example 1.35, (S)-(5-(3,5-difluorophenyl)-4,5-dihydro-1H-pyrazol-1-yl)(6-(pyrazin-2-yl)-2,6-diazaspiro[3.3]heptan-2-yl)methanone] the value was 5150 nM; for `CC1(C#N)CN(C(=O)N2N=CC[C@H]2c2cc(F)cc(F)c2)C1` [Example 1.36, (S)-1-(5-(3,5-difluorophenyl)-4,5-dihydro-1H-pyrazole-1-carbonyl)-3-methylazetidine-3-carbonitrile], 62.3 nM.
For `O=C(N1CC(C(F)F)C1)N1N=CC[C@H]1c1cc(F)cc(F)c1` [Example 1.37, (S)-(3-(difluoromethyl)azetidin-1-yl)(5-(3,5-difluorophenyl)-4,5-dihydro-1H-pyrazol-1-yl)methanone] the value was 22.6 nM; for `COCCC1CN(C(=O)N2N=CC[C@H]2c2cc(F)cc(F)c2)C1` [Example 1.38, (S)-(5-(3,5-difluorophenyl)-4,5-dihydro-1H-pyrazol-1-yl)(3-(2-methoxyethyl)azetidin-1-yl)methanone], 105 nM; for `N#CC1(c2ccccc2)CN(C(=O)N2N=CC[C@H]2c2cc(F)cc(F)c2)C1` [Example 1.39, (S)-1-(5-(3,5-difluorophenyl)-4,5-dihydro-1H-pyrazole-1-carbonyl)-3-phenylazetidine-3-carbonitrile], 648 nM.
Next, `CC1CN(C(=O)N2N=CC[C@H]2c2cc(F)cc(F)c2)C1` [Example 1.40, (S)-(5-(3,5-difluorophenyl)-4,5-dihydro-1H-pyrazol-1-yl)(3-methylazetidin-1-yl)methanone]: 26 nM; `O=C(N1CC(c2ccccc2)C1)N1N=CC[C@H]1c1cc(F)cc(F)c1` [Example 1.41, (S)-(5-(3,5-difluorophenyl)-4,5-dihydro-1H-pyrazol-1-yl)(3-phenylazetidin-1-yl)methanone]: 6.6 nM.
`O=C(N1CC(c2cccnc2)C1)N1N=CC[C@H]1c1cc(F)cc(F)c1` [Example 1.42, (S)-(5-(3,5-difluorophenyl)-4,5-dihydro-1H-pyrazol-1-yl)(3-(pyridin-3-yl)azetidin-1-yl)methanone, TFA salt] displayed an EC50 of 28.6 nM.
The compound `O=C(N1CC(F)(c2ccccc2)C1)N1N=CC[C@H]1c1cc(F)cc(F)c1` [Example 1.43, (S)-(5-(3,5-difluorophenyl)-4,5-dihydro-1H-pyrazol-1-yl)(3-fluoro-3-phenylazetidin-1-yl)methanone] showed an EC50 of 775 nM. Compared with the last compound, the EC50 is about 27-fold higher.
For `O=C(N1CC(O)(c2ccccc2)C1)N1N=CC[C@H]1c1cc(F)cc(F)c1` [Example 1.44, (S)-(5-(3,5-difluorophenyl)-4,5-dihydro-1H-pyrazol-1-yl)(3-hydroxy-3-phenylazetidin-1-yl)methanone] the value was 811 nM; for `COC1(C)CN(C(=O)N2N=CC[C@H]2c2cc(F)cc(F)c2)C1` [Example 1.45, (S)-(5-(3,5-difluorophenyl)-4,5-dihydro-1H-pyrazol-1-yl)(3-methoxy-3-methylazetidin-1-yl)methanone], 98.5 nM.
For `COC1(C(F)(F)F)CN(C(=O)N2N=CC[C@H]2c2cc(F)cc(F)c2)C1` [Example 1.46, (S)-(5-(3,5-difluorophenyl)-4,5-dihydro-1H-pyrazol-1-yl)(3-methoxy-3-(trifluoromethyl)azetidin-1-yl)methanone] the value was 233 nM; for `CCOc1cccc(CC2CN(C(=O)N3N=CC[C@H]3c3cc(F)cc(F)c3)C2)c1` [Example 1.48, (S)-(5-(3,5-difluorophenyl)-4,5-dihydro-1H-pyrazol-1-yl)(3-(3-ethoxybenzyl)azetidin-1-yl)methanone], 17.1 nM.
For `Cc1ccccc1OC1CN(C(=O)N2N=CC[C@H]2c2cc(F)cc(F)c2)C1` [Example 1.49, (S)-(5-(3,5-difluorophenyl)-4,5-dihydro-1H-pyrazol-1-yl)(3-(o-tolyloxy)azetidin-1-yl)methanone] the value was 11.7 nM; for `O=C(N1CC(Oc2ccc(F)cc2)C1)N1N=CC[C@H]1c1cc(F)cc(F)c1` [Example 1.50, (S)-(5-(3,5-difluorophenyl)-4,5-dihydro-1H-pyrazol-1-yl)(3-(4-fluorophenoxy)azetidin-1-yl)methanone], 7 nM.
In the case of `O=C(N1CC(c2ccncn2)C1)N1N=CC[C@H]1c1cc(F)cc(F)c1` [Example 1.51, (S)-(5-(3,5-difluorophenyl)-4,5-dihydro-1H-pyrazol-1-yl)(3-(pyrimidin-4-yl)azetidin-1-yl)methanone], the midpoint of the response, the EC50, lay at 1110 nM.
For `O=C(N1CC(OCc2ncc(Br)s2)C1)N1N=CC[C@H]1c1cc(F)cc(F)c1` [Example 1.52, (S)-(3-((5-bromothiazol-2-yl)methoxy)azetidin-1-yl)(5-(3,5-difluorophenyl)-4,5-dihydro-1H-pyrazol-1-yl)methanone] the value was 23.9 nM.
For `O=C(N1CC2(CCCOC2)C1)N1N=CC[C@H]1c1cc(F)cc(F)c1` [Example 1.53, (S)-(5-(3,5-difluorophenyl)-4,5-dihydro-1H-pyrazol-1-yl)(6-oxa-2-azaspiro[3.5]nonan-2-yl)methanone] the value was 530 nM; for `CS(=O)(=O)C1CN(C(=O)N2N=CC[C@H]2c2cc(F)cc(F)c2)C1` [Example 1.54, (S)-(5-(3,5-difluorophenyl)-4,5-dihydro-1H-pyrazol-1-yl)(3-(methylsulfonyl)azetidin-1-yl)methanone], 4230 nM.

For the origin of these results see patent publication US20230265094A1, “RIPK1 INHIBITORS AND METHODS OF USE” (Merck Sharp & Dohme LLC, priority 2020, published 2023).
